Measurements taken from US20240199605A1, “SMALL MOLECULAR INHIBITORS OF NF-kB INDUCING KINASE” (Janssen Pharmaceutica NV, priority 2019, published 2024).

What was measured:
[1] = target: recombinant human NF-kappaB-inducing kinase (NIK/MAP3K14) (Homo sapiens (Human), UniProt Q99558); test: Inhibition of auto-phosphorylation of recombinant human NIK/MAP3K14 (AlphaScreen); assay type: biochemical; settings: NIK auto-phosphorylation, 5 μM ATP, 1 nM NIK, 2 h at 25° C.; average of values
Summary of the method: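 GST-tagged NIK (1 nM) auto-phosphorylated with 5 μM ATP for 2 h at 25° C. in 50 mM Tris pH 7.5, 5 mM MgCl2, 1 mM EGTA, 1 mM DTT, 0.1 mM Na3VO4, 0.01% Tween 20 (0.7% DMSO). Detected by AlphaScreen via anti-phospho-IKK Ser176/180 antibody; IC50 from sigmoidal fit of % inhibition versus log concentration.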

[2] = tested on: p-IKKα levels in L363 (NIK translocated multiple myeloma) cells; test: Effect of compounds on p-IKKα levels in L363 cells (AlphaLISA SureFire Ultra); assay type: cell-based, human; settings: Homo sapiens, L-363, 6 h, BAFF stimulated, MG132, 6 h, average of values, read-out: Assay 2 IC50
Summary of the method: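 Inhibition of p-IKKα (Ser176/180) read by AlphaLISA after 6 h, 37 °C compound exposure (11-point 1:3 series, 0.3% DMSO) of L363 cells pre-incubated overnight ± 250 ng/ml BAFF and plated ± BAFF ± 10 μM MG132. Normalised to BAFF/MG132/DMSO and unstimulated controls; IC50 by sigmoidal fitting, duplicates.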

Chain of recombinant human NF-kappaB-inducing kinase (NIK/MAP3K14) (Q99558 whole entry): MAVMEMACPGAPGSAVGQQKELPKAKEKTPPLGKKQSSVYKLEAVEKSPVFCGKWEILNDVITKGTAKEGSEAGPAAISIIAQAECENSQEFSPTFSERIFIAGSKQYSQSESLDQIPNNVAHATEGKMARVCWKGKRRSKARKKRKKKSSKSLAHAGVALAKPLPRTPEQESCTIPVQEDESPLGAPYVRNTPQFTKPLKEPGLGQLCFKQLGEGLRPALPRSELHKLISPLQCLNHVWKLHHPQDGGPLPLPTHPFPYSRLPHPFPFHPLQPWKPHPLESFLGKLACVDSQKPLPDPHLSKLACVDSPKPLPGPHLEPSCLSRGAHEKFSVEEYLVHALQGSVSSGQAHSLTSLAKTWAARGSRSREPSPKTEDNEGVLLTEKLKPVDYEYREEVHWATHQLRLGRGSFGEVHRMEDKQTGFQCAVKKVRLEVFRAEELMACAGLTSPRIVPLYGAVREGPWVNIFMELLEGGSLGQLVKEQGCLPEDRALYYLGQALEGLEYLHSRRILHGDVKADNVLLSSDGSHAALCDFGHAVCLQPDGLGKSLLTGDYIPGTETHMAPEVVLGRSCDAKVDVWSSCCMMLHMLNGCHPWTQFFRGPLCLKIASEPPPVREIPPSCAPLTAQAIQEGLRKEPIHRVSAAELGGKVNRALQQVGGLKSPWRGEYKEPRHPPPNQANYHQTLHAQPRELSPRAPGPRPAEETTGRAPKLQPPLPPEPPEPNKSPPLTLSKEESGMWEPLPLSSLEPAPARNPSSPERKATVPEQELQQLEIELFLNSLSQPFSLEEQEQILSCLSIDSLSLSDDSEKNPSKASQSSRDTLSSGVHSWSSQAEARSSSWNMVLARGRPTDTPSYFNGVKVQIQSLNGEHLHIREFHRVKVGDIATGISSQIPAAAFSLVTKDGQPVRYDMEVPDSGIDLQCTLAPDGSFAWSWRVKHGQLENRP

Row | SMILES | IC50 [1] [nM] | IC50 [2] [nM]
1 | C=CCN1CCC(O)(C#Cc2cccc(-c3ccc4nc(C)nc(N)c4n3)c2)C1=O (racemic) [Example 195, racemic-1-Allyl-3-((3-(4-amino-2-methylpyrido[3,2-d]pyrimidin-6-yl)phenyl)ethynyl)-3-hydroxypyrrolidin-2-one] | 21 | 1130
2 | Cc1nc(N)c2nc(-c3cccc(C#C[C@]4(O)C[C@H](C)N(C)C4=O)c3)ccc2n1 [Example 268, (3R,5S)-3-((3-(4-Amino-2-methylpyrido[3,2-d]pyrimidin-6-yl)phenyl)ethynyl)-3-hydroxy-1,5-dimethylpyrrolidin-2-one] | 65 | 585
3 | CN1CC[C@@](O)(C#Cc2cccc(-c3nc(N4CCOCC4)c4ccnc(N)c4n3)c2)C1=O [Example 57, (R)-3-((3-(8-Amino-4-morpholinopyrido[3,4-d]pyrimidin-2-yl)phenyl)ethynyl)-3-hydroxy-1-methylpyrrolidin-2-one] | 1.3 | 35
4 | CN1CC[C@@](O)(C#Cc2cccc(-c3ccc4ncnc(NC5CCC5)c4n3)c2)C1=O [Example 236, (R)-3-((3-(4-(Cyclobutylamino)pyrido[3,2-d]pyrimidin-6-yl)phenyl)ethynyl)-3-hydroxy-1-methylpyrrolidin-2-one] | 57 | 1370
5 | Cc1nc(N)c2nc(-c3cccc(C#C[C@](C)(O)c4ncc(C)s4)c3)ccc2n1 [Example 166, (S)-4-(3-(4-Amino-2-methylpyrido[3,2-d]pyrimidin-6-yl)phenyl)-2-(5-methylthiazol-2-yl)but-3-yn-2-ol] | 4700 | > 5000
6 | CN1CC[C@@](O)(C#Cc2cccc(-c3cn4cncc4c(=O)[nH]3)c2)C1=O [Example 218, (R)-6-[3-[2-(3-Hydroxy-1-methyl-2-oxo-pyrrolidin-3-yl)ethynyl]phenyl]-7H-imidazo[1,5-a]pyrazin-8-one] | 78 | > 5000
7 | Nc1nccc2c(C(F)(F)F)nc(-c3cccc(C#C[C@]4(O)CCc5cccnc54)c3)nc12 [Example 61, (R)-7-((3-(8-Amino-4-(trifluoromethyl)pyrido[3,4-d]pyrimidin-2-yl)phenyl)ethynyl)-6,7-dihydro-5H-cyclopenta[b]pyridin-7-ol] | 4 | 170
8 | CN1CC[C@@](O)(C#Cc2cccc(-c3cnc4ncnc(N)c4c3)c2)C1=O [Example 109, (R)-3-((3-(4-Aminopyrido[2,3-d]pyrimidin-6-yl)phenyl)ethynyl)-3-hydroxy-1-methylpyrrolidin-2-one] | 13 | > 5000
9 | CN1CC[C@@](O)(C#Cc2cccc(-c3ccc4ncnc(N(C)C)c4n3)c2)C1=O [Example 25, (R)-3-((3-(4-(Dimethylamino)pyrido[3,2-d]pyrimidin-6-yl)phenyl)ethynyl)-3-hydroxy-1-methylpyrrolidin-2-one] | 2.1 | 180
10 | Cc1cc([C@](C)(O)C#Cc2ccc(C)c(-c3ccc4ccnc(N)c4c3)c2)no1 [Example 79, (R)-4-[3-(1-Amino-7-isoquinolyl)-4-methyl-phenyl]-2-(5-methylisoxazol-3-yl)but-3-yn-2-ol] | 590 | > 5000
11 | Cc1nc(N)c2nc(-c3cccc(C#C[C@](C)(O)c4cscn4)c3)ccc2n1 [Example 209, (S)-4-[3-(4-Amino-2-methyl-pyrido[3,2-d]pyrimidin-6-yl)phenyl]-2-thiazol-4-yl-but-3-yn-2-ol] | 110 | > 5000
12 | C[C@@](O)(C#Cc1cccc(-c2cnc3ncnc(N)c3c2)c1)c1nccs1 [Example 108, (R)-4-(3-(4-Aminopyrido[2,3-d]pyrimidin-6-yl)phenyl)-2-(thiazol-2-yl)but-3-yn-2-ol] | 7.6 | > 5000
13 | Cc1nc(N)c2nc(-c3cccc(C#C[C@]4(O)C(=O)N(C)C[C@@H]4C)c3)ccc2n1 (stereo in doubt) [Example 293, (3S,4S*)-3-((3-(4-Amino-2-methylpyrido[3,2-d]pyrimidin-6-yl)phenyl)ethynyl)-3-hydroxy-1,4-dimethylpyrrolidin-2-one] | > 5000 | > 5000
14 | Cc1cc2ncnc(N)c2nc1-c1cccc(C#C[C@]2(O)CCN(C)C2=O)c1 [Example 189, (R)-3-((3-(4-Amino-7-methylpyrido[3,2-d]pyrimidin-6-yl)phenyl)ethynyl)-3-hydroxy-1-methylpyrrolidin-2-one] | 1.8 | 71
15 | COCc1nc(N)c2nc(-c3cccc(C#C[C@]4(O)CCN(C)C4=O)c3)ccc2n1 [Example 206, (R)-3-((3-(4-Amino-2-(methoxymethyl)pyrido[3,2-d]pyrimidin-6-yl)phenyl)ethynyl)-3-hydroxy-1-methylpyrrolidin-2-one] | 3.5 | 160
16 | CN1CC[C@@](O)(C#Cc2cccc(-c3ccc4ccnc(N5CCC5)c4c3)c2)C1=O [Example 234, (R)-3-((3-(1-(Azetidin-1-yl)isoquinolin-7-yl)phenyl)ethynyl)-3-hydroxy-1-methylpyrrolidin-2-one] | 1800 | > 5000
17 | Cc1c(C#C[C@]2(O)CCN(C)C2=O)cccc1-c1ncc2ccnc(N)c2n1 [Example 41, (R)-3-((3-(8-Aminopyrido[3,4-d]pyrimidin-2-yl)-2-methylphenyl)ethynyl)-3-hydroxy-1-methylpyrrolidin-2-one] | 68 | > 5000

The next lines start with the values.

Row | IC50 [1] [nM] | IC50 [2] [nM] | SMILES
18 | 1.3 | 84 | Cc1ccc(C#C[C@]2(O)CCc3cccnc32)cc1-c1ncc2ccnc(N)c2n1 [Example 75, (R)-7-((3-(8-Aminopyrido[3,4-d]pyrimidin-2-yl)-4-methylphenyl)ethynyl)-6,7-dihydro-5H-cyclopenta[b]pyridin-7-ol]
19 | 0.9 | 16 | CN1CC[C@@](O)(C#Cc2cccc(-c3ccc4nc(F)nc(N)c4n3)c2)C1=O [Example 288, (R)-3-((3-(4-Amino-2-fluoropyrido[3,2-d]pyrimidin-6-yl)phenyl)ethynyl)-3-hydroxy-1-methylpyrrolidin-2-one]
20 | 0.7 | 6.1 | CNc1nc(-c2cccc(C#C[C@]3(O)CCN(C)C3=O)c2)nc2c(N)nccc12 [Example 85, (R)-3-((3-(8-Amino-4-(methylamino)pyrido[3,4-d]pyrimidin-2-yl)phenyl)ethynyl)-3-hydroxy-1-methylpyrrolidin-2-one]
21 | 1.2 | 58 | CN1CC[C@@](O)(C#Cc2cccc(-c3ccc4ncnc(N5CCC5)c4n3)c2)C1=O [Example 26, (R)-3-((3-(4-(Azetidin-1-yl)pyrido[3,2-d]pyrimidin-6-yl)phenyl)ethynyl)-3-hydroxy-1-methylpyrrolidin-2-one]
22 | 0.9 | 77 | Cc1cc([C@](C)(O)C#Cc2ccc(C)c(-c3nc4c(N)ncnc4s3)c2)no1 [Example 217, (R)-4-[3-(7-Aminothiazolo[5,4-d]pyrimidin-2-yl)-4-methyl-phenyl]-2-(5-methylisoxazol-3-yl)but-3-yn-2-ol]
23 | 0.8 | 22 | CN1CC[C@@](O)(C#Cc2cccc(-c3ccc4nc(CF)nc(N)c4n3)c2)C1=O [Example 170, (R)-3-((3-(4-Amino-2-(fluoromethyl)pyrido[3,2-d]pyrimidin-6-yl)phenyl)ethynyl)-3-hydroxy-1-methylpyrrolidin-2-one]
24 | ≤ 0.5 | 4.8 | CN1CC[C@@](O)(C#Cc2cccc(-c3ccc4c(Br)cnc(N)c4n3)c2)C1=O [Example 112, (R)-3-[2-[3-(8-Amino-5-bromo-1,7-naphthyridin-2-yl)phenyl]ethynyl]-3-hydroxy-1-methyl-pyrrolidin-2-one]
25 | 0.8 | 27 | Cc1nc(-c2cccc(C#C[C@]3(O)CCc4cccnc43)c2)nc2c(N)nccc12 [Example 60, (R)-7-((3-(8-Amino-4-methylpyrido[3,4-d]pyrimidin-2-yl)phenyl)ethynyl)-6,7-dihydro-5H-cyclopenta[b]pyridin-7-ol]
26 | 1 | 48 | Cc1ccc(C#C[C@]2(O)CCN(C)C2=O)cc1-c1ncc2c(C)cnc(N)c2n1 [Example 65, (R)-3-[2-[3-(8-Amino-5-methyl-pyrido[3,4-d]pyrimidin-2-yl)-4-methyl-phenyl]ethynyl]-3-hydroxy-1-methyl-pyrrolidin-2-one]
27 | ≤ 0.5 | 5.9 | Nc1nccc2cnc(-c3cccc(C#C[C@]4(O)CCn5ccnc54)c3)nc12 [Example 17, (R)-7-[2-[3-(8-Aminopyrido[3,4-d]pyrimidin-2-yl)phenyl]ethynyl]-5,6-dihydropyrrolo[1,2-a]imidazol-7-ol]
28 | 0.9 | 9.5 | CN1CC[C@@](O)(C#Cc2cccc(-c3cc(N4CCC4)c4ncnc(N)c4n3)c2)C1=O [Example 316, (R)-3-[2-[3-[4-Amino-8-(azetidin-1-yl)pyrido[3,2-d]pyrimidin-6-yl]phenyl]ethynyl]-3-hydroxy-1-methyl-pyrrolidin-2-one]
29 | ≤ 0.5 | 5.8 | CN1CC[C@@](O)(C#Cc2cccc(-c3ncc4c(Cl)cnc(N)c4n3)c2)C1=O [Example 103, (R)-3-((3-(8-Amino-5-chloropyrido[3,4-d]pyrimidin-2-yl)phenyl)ethynyl)-3-hydroxy-1-methylpyrrolidin-2-one]
30 | 0.7 | 78 | Cc1nc(N)c2nc(-c3cccc(C#C[C@@](C)(O)c4nccs4)c3)ccc2n1 [Example 164, (R)-4-(3-(4-Amino-2-methylpyrido[3,2-d]pyrimidin-6-yl)phenyl)-2-(thiazol-2-yl)but-3-yn-2-ol]
